The supplement of paper PMC10307832

Assays:
Assay in all cases: relative viability (nuclei count vs DMSO), 5 days (fraction); higher = more cells survive
[1] = compound: CC(C)=CC[C@@H](O)C1=CC(=O)c2c(O)ccc(O)c2C1=O [Shikonin] + NC(=O)Nc1cc(-c2cccc(F)c2)sc1C(=O)N[C@H]1CCCNC1 [AZD7762] (partner 0.2 µM)
Method in brief: (§1)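 Relative viability is defined as nuclei in treated wells over nuclei in vehicle wells. Duplicate plates were run and medians reported. Lung cancer cell lines in 1536-well plates were dosed by pin tool one day after seeding, with one drug or with a fixed anchor-drug dose plus five library-drug doses (not always all listed) in √10 steps, and nuclei were counted after 5 days.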

[2] = compound: CC(C)N(CCCNC(=O)Nc1ccc(C(C)(C)C)cc1)C[C@H]1O[C@@H](n2ccc3c(N)ncnc32)[C@H](O)[C@@H]1O + Nc1ncn([C@H]2C[C@H](O)[C@@H](CO)O2)c(=O)n1 [Decitabine] (partner 2 µM)
Method in brief: as §1

[3] = compound: CC(C)N(CCCNC(=O)Nc1ccc(C(C)(C)C)cc1)C[C@H]1O[C@@H](n2ccc3c(N)ncnc32)[C@H](O)[C@@H]1O + C[C@@H](Oc1cc(-c2cnn(C3CCNCC3)c2)cnc1N)c1c(Cl)ccc(F)c1Cl [Crizotinib] (partner 1 µM)
Method in brief: as §1

[4] = compound: CC(C)=CC[C@@H](O)C1=CC(=O)c2c(O)ccc(O)c2C1=O [Shikonin] + CC(=O)c1c(C)c2cnc(Nc3ccc(N4CCNCC4)cn3)nc2n(C2CCCC2)c1=O [Palbociclib] (partner 0.5 µM)
Method in brief: as §1

Cell Line	relative viability ([1]; first compound 0.01 µM)	relative viability ([1]; first compound 0.1 µM)	relative viability ([1]; first compound 0.3162 µM)	relative viability ([1]; first compound 1 µM)	relative viability ([2]; first compound 0.08 µM)	relative viability ([2]; first compound 0.253 µM)	relative viability ([2]; first compound 0.8 µM)	relative viability ([2]; first compound 2.53 µM)	relative viability ([2]; first compound 8 µM)	relative viability ([3]; first compound 0.08 µM)	relative viability ([3]; first compound 0.253 µM)	relative viability ([3]; first compound 0.8 µM)	relative viability ([3]; first compound 2.53 µM)	relative viability ([3]; first compound 8 µM)	relative viability ([4]; first compound 0.01 µM)	relative viability ([4]; first compound 0.1 µM)	relative viability ([4]; first compound 0.3162 µM)	relative viability ([4]; first compound 1 µM)
HCC-15	1.33	1.18	1.34	1.24	0.655	0.592	0.65	0.646	0.544	0.85	0.804	0.819	0.832	0.776	0.781	0.676	0.817	0.724
A-427	0.771	0.78	0.694	0.75	0.556	0.535	0.568	0.541	0.568	0.908	0.856	0.95	0.989	0.851	0.503	0.545	0.528	0.553
NCI-H23	0.223	0.27	0.268	0.231	0.311		0.327	0.298	0.331	0.487		0.506	0.694	0.534	0.597	0.543	0.623	0.573
NCI-H1734	0.557	0.552	0.595	0.55	0.454	0.495	0.463	0.545	0.484	0.644	0.656	0.728	0.649	0.605	0.319	0.38	0.323	0.308
RERF-LC-KJ	1.04	0.788	1.26	1.02	0.703	0.685	0.715	0.639	0.693	0.821	0.85	0.845	0.789	0.779	1.09	1.13	1.1	1.08
NCI-H1915	0.695	0.752	0.728	0.729	0.274	0.289	0.269	0.25	0.267	0.937	0.879	0.768	0.863	0.793	0.535	0.521	0.525	0.645
NCI-H1666	0.776	0.9	1	0.887	0.722	0.697	0.808	0.832	0.673	1.02	0.983	0.953	1.02	0.76	0.648	0.664	0.617	0.599
HCC-366	0.281	0.25	0.308	0.269	0.359	0.335	0.317	0.294	0.352	0.375	0.545	0.654	0.526	0.478	0.415	0.4	0.316	0.388
NCI-H1993	0.524	0.667	0.632	0.906	0.482		0.564	0.6	0.559	0.767	0.935	0.877	0.841	0.888	0.687	0.672	0.722	0.455
